Measured values: US6479549B2, “Carnosic acid derivatives for promoting synthesis of nerve growth factor” (Nagase & Company, Ltd., priority 2000, dated 2002)

Assays:
[1] = tested on: Human glioblastoma cells (T98G cell line); experiment: NGF content in culture supernatant of T98G cells (sandwich enzyme immunoassay); type: cell-based; details: for NGF Content in sample solution: 100 uM effective ingredient in Opti-MEM medium, T98G cells, 4 days cultivation, mean ± standard deviation, comparative example (none) 6.3 ± 1.2; for Relative NGF content: 100 uM, ratio of NGF content in example solution to that in comparative example solution (=1.0)
Method: Human glioblastoma cells (T98G cell line) were seeded in a MEM medium containing fetal bovine serum (10%; Gibco), sodium pyruvate (x 1; Gibco) and nonessential amino acids (x 1; Gibco) in wells of a flat-bottom 96-well plate (Corning), in a cell density of 2×10^4/well, and cultivated in a CO2 incubator (37° C., 5% CO2) for 3 days. The medium was then replaced by an Opti-MEM medium (containing 5 mg/ml of bovine serum albumin). The cultivation was continued for further 6 days with replacing the medium at intervals of 3 days.
After removing the medium, an Opti-MEM medium (containing 5 mg/ml of bovine serum albumin) containing 100 uM (micromole) of carnosic acid diacetate obtained in Example 1 was added to each well in an amount of 50 ul (microliter)/well, and the cultivation was continued for further 4 days. After the cultivation, the supernatant was taken as a sample solution.
On the other hand, 1 ug/ml of an anti-NGF antibody (Promega) solution (50 ul) was added to each well of a 96-well microplate (Nunc), and the plate was allowed to stand overnight at 4° C. After washing the plate with PBS(-) (Nissui Pharmaceuticals), 1% of a bovine serum albumin (Sigma) solution (100 ul) was added to each well of the plate and the plate was allowed to stand at room temperature for 4 hrs to block the plate. […]
Subsequently, 0.4 unit/ml of a beta-galactosidase-labeled anti-NGF antibody (Boehringer Mannheim) solution (50 ul) was added to each well of the plate, and allowed to react at room temperature for one hour. […] The fluorescence intensity of 4-methylumbelliferone produced was measured on a fluorescence plate reader, and the content of NGF contained in the sample solution was determined using a standard curve obtained from a standard solution (human beta-NGF; PEPRO TECH EC).
The content of NGF contained in the sample solution was determined as described in Example 4, except that an Opti-MEM medium (containing 5 mg/ml of bovine serum albumin) containing 100 uM of carnosic acid diacetate methyl ester obtained in Example 2 was used in an amount of 50 ul/well, instead of carnosic acid diacetate.
The content of NGF contained in the sample solution was determined as described in Example 4, except that an Opti-MEM medium (containing 5 mg/ml of bovine serum albumin) containing 100 uM of carnosic acid methyl ester obtained in Example 3 was used inan amount of 50 ul/well, instead of carnosic acid diacetate.
The content of NGF contained in the sample solution was determined as described in Example 4, except that an Opti-MEM medium (containing 5 mg/ml of bovine serum albumin) not containing carnosic acid diacetate was used in an amount of 50 ul/well, instead of the Opti-MEM medium containing carnosic acid diacetate.

Wistar male rats = experiment: Ethanol-induced stomach ulcers in rats (ulcer index); type: in vivo; details: 10 mg/kg body weight oral
Method: To Wistar male rats (5 rats per group) of 180-200 g body weight fasted for 24 hours before the start of a test, carnosic acid diacetate obtained in Example 1 was orally administered in a dose level of 10 mg per kg body weight, after suspending it in water. After 30 minutes of the administration, 1 ml of ethanol (99.5%) was orally administered to each rat. After one hour of the ethanol administration, laparotomy was carried out and the lengths of all ulcers developed in the stomach were measured arld added up. The total lengths of ulcers are taken as ulcer indexes.
The lengths of all ulcers developed in the stomach were measured and added up as described in Example 7, except that water containing carnosic acid methyl ester (10 mg per kg body weight) was used instead of water containing carnosic acid diacetate. The total lengths of ulcers are taken as ulcer indexes.
The lengths of all ulcers developed in the stomach were measured and added up as described in Example 7, except that water not containing carnosic acid diacetate was used instead of water containing carnosic acid diacetate. The total lengths of ulcers are taken as ulcer indexes.

Row | SMILES | NGF Content in sample solution [1] [pg/mL] | Relative NGF content [1] | Ulcer index (Wistar male rats; 30 minutes before 1 ml ethanol (99.5%) oral, total length of stomach ulcers 1 hour after ethanol, mean ± standard deviation, comparative example 62.4) [mm] | Relative ulcer index (Wistar male rats; ratio of ulcer index in example to that in comparative example 2 (=100))
1 | COC(=O)[C@@]12CCCC(C)(C)[C@H]1CCc1cc(C(C)C)c(OC(C)=O)c(OC(C)=O)c12 [Carnosic acid diacetate methyl ester, carnosic acid diacetate methyl ester] | 50.6 ± 4.3 | 8.0 |  | 
2 | COC(=O)[C@]12CCCC(C)(C)C1CCc1cc(C(C)C)c(O)c(O)c12 (stereo partly drawn) [Carnosic acid methyl ester, carnosic acid methyl ester] | 33.3 ± 2.8 | 5.3 | 33.6 ± 3.6 | 53.8
